Results from patent US9809598B2 (Merck Patent GmbH, priority 2014, dated 2017).

Experiments:
[1] = tested on: Tankyrases; settings: read-out: EC50 [M] TNKS cellular assay; DLD1 cells, 24 hours, Axin2 increase
[2] = biological target: T1, TNKS1 (Homo sapiens, UniProt O95271); assay: TNKS1 activity ELISA (autoparsylation assay); type: biochemical; settings: GST-tagged Tnks-1 (1023-1327 aa)
T1 construct: GST-tagged Tnks-1 (1023-1327 aa, prepared in-house); made in house
In short: (§1)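 GST-tagged TNKS1 or TNKS2 captured on glutathione plates and allowed to auto-PARsylate with biotinylated NAD with or without compound. Biotin-ADP-ribosylated enzyme detected by streptavidin-HRP and luminescence; IC50 relative to inhibitor-free reaction.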

[3] = biological target: T2, TNKS2 (Homo sapiens, UniProt Q9H2K2); assay: TNKS2 activity ELISA (autoparsylation assay); type: biochemical; settings: GST-tagged Tnks-2 (873-1166 aa); read-out: IC50 [M] TNKS2 ELISA
T2 construct: GST-tagged Tnks-2 (873-1166 aa, prepared in-house); made in house
T2 sequence (Q9H2K2 873-1166): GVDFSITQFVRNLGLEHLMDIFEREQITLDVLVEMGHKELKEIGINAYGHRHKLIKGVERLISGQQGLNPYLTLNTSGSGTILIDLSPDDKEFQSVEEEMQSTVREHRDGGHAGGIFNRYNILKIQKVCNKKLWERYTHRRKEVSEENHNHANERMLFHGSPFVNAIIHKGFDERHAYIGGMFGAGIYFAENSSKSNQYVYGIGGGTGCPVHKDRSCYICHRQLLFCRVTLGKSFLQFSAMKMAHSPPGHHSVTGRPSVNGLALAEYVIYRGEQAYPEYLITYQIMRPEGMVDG
In short: as §1

[4] = biological target: T3, PARP-1 (Homo sapiens, UniProt P09874); assay: PARP-1 autoparsylation assay (HTRF); type: biochemical; settings: His-tagged Parp-1, autoparsylation HTRF
T3 construct: purchased Enzo Life Sciences GmbH, Lörrach, Germany
T3 sequence (P09874 whole entry): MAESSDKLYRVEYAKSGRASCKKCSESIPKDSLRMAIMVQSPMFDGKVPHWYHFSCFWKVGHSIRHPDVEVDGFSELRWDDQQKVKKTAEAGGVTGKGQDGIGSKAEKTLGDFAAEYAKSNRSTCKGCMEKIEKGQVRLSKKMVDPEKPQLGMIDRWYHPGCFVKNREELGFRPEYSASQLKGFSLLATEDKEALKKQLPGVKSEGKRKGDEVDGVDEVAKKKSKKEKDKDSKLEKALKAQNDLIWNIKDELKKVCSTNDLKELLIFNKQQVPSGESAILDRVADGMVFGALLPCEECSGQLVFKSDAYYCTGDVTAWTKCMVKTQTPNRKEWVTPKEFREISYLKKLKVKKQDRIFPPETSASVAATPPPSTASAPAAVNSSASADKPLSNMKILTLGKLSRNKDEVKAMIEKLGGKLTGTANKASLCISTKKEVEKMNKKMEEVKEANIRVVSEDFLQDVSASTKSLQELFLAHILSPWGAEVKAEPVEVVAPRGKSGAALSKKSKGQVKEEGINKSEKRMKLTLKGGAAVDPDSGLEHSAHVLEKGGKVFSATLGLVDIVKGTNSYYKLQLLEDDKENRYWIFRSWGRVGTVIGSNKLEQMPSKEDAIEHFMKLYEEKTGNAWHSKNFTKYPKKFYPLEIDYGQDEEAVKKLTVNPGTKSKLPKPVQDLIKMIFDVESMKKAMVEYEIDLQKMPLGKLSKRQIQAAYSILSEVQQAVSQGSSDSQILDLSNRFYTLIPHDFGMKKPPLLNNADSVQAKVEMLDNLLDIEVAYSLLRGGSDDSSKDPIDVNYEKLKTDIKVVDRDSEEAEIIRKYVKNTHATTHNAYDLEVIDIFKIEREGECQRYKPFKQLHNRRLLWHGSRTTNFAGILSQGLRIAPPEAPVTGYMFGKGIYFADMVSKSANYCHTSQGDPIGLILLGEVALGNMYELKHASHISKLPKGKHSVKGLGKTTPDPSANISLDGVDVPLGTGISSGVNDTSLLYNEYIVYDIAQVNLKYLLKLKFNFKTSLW
Description: Description of the PARP1 Assay
Biochemical Activity Testing of PARP-1: Autoparsylation Assay
The autoparsylation assay is run in two steps: the enzymatic reaction in which His-tagged Parp-1 transfers biotinylated ADP-ribose/ADP-ribose to itself from biotinylated NAD/NAD as co-substrate and the detection reaction where a time resolved FRET between cryptate labelled anti-His antibody bound to the His tag of the enzyme and Xlent® labelled-streptavidin bound the biotin-parsylation residue is analysed. The autoparsylation activity is detectable directly via the increase in HTRF signal.
The autoparsylation assay is performed as 384-well HTRF® (Cisbio, Codolet, France) assay format in Greiner low volume nb 384-well microtiter plates. […] The ratio of the emission signals is determined. The full value used is the inhibitor-free reaction. The pharmacological zero value used is Olaparib (LClabs, Woburn, US) in a final concentration of 1 μM. The inhibitory values (IC50) are determined using either the program Symyx Assay Explorer® or Condosseo® from GeneData.

T1 sequence (O95271 1023-1327): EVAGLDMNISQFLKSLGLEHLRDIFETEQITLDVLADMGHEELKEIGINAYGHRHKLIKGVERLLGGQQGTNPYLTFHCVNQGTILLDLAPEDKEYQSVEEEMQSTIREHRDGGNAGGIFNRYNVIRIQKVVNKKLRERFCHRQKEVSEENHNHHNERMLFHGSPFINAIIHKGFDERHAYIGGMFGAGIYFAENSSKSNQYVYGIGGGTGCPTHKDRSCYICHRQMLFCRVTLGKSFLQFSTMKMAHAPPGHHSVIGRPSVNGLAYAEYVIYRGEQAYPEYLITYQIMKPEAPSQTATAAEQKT

Structure (SMILES) | EC50 [1] | IC50 [2] | IC50 [3] | IC50 [4]
Cc1scc2c(=O)[nH]c(CCCC(=O)N3CCC(C(=O)c4cnn(C)c4)CC3)nc12 [Compound C123, 7-Methyl-2-{4-[4-(1-methyl-1H-pyrazole-4-carbonyl)-piperidin-1-yl]-4-oxo-butyl}-3H-thieno[3,4-d]pyrimidin-4-one] | 3.4e-09 M | 0.67 nM | 5.7e-10 M | 1200 nM
COc1ccc(C(=O)C2CCN(C(=O)CCCc3nc4c(C)csc4c(=O)[nH]3)CC2)cn1 [Compound C126, 2-{4-[4-(6-Methoxypyridine-3-carbonyl)-1-piperidyl]-4-oxo-butyl}-7-methyl-3H-thieno[3,2-d]pyrimidin-4-one] | 1.3e-08 M | 0.23 nM | 1.6e-10 M | 560 nM
Cc1csc2c(=O)[nH]c(CCCC(=O)N3CCC(c4cnc(N)c(-c5ncccn5)c4)CC3)nc12 [Compound C128, 2-{4-[4-(6-Amino-5-pyrimidin-2-yl-3-pyridyl)-1-piperidyl]-4-oxo-butyl}-7-methyl-3H-thieno[3,2-d]pyrimidin-4-one] | 3.3e-09 M | 0.11 nM | 7.9e-10 M | 230 nM
Cc1csc2c(=O)[nH]c(CCCC(=O)N3CCC(Oc4ccc(C#N)cc4)CC3)nc12 [Compound C130, 4-{{1-[4-(7-Methyl-4-oxo-3H-thieno[3,2-d]pyrimidin-2-yl)butanoyl]-4-piperidyl}-oxy}benzonitrile] | 3.3e-08 M | 50 nM | 2.1e-08 M | 320 nM
Cc1csc2c(=O)[nH]c(CCCC(=O)N3CCC(C(=O)c4ccc(F)cc4)CC3)nc12 [Compound C131, 2-{4-[4-(4-Fluorobenzoyl)-1-piperidyl]-4-oxo-butyl}-7-methyl-3H-thieno[3,2-d]pyrimidin-4-one] | 1.6e-08 M | 0.36 nM | 2.1e-10 M | 270 nM
COc1ccc(C(=O)C2CCN(C(=O)CCCc3nc4c(C)csc4c(=O)[nH]3)CC2)cc1C [Compound C132, 2-{4-[4-(4-Methoxy-3-methyl-benzoyl)-1-piperidyl]-4-oxo-butyl}-7-methyl-3H-thieno[3,2-d]pyrimidin-4-one] | 7.7e-10 M | < 0.1 nM | 1.1e-10 M | 440 nM
Cc1csc2c(=O)[nH]c(CCCC(=O)N3CCC(C(=O)c4ccc(C(C)(C)O)cc4)CC3)nc12 [Compound C133, 2-{4-{4-[4-(1-Hydroxy-1-methyl-ethyl)benzoyl]-1-piperidyl}-4-oxo-butyl}-7-methyl-3H-thieno[3,2-d]pyrimidin-4-one] | 6.4e-08 M | 2.1 nM | 7.5e-10 M | 1000 nM
Cc1csc2c(=O)[nH]c(CCCC(=O)N3CCC(C(=O)c4cnn(C)c4)CC3)nc12 [Compound C135, 7-Methyl-2-{4-[4-(1-methyl-1H-pyrazole-4-carbonyl)-piperidin-1-yl]-4-oxo-butyl}-3H-thieno[3,2-d]pyrimidin-4-one] | 3.9e-08 M | 0.49 nM | 4.7e-10 M | 420 nM
COc1ccc(C(=O)C2CCN(C(=O)CCCc3nn4cccc4c(=O)[nH]3)CC2)cc1F [Compound C136, 2-{4-[4-(3-Fluoro-4-methoxy-benzoyl)-piperidin-1-yl]-4-oxo-butyl}-3H-pyrrolo[2,1-f][1,2,4]triazin-4-one] | 3.6e-09 M | 0.25 nM | 2.1e-10 M | 3100 nM
N#Cc1cc(C2CCN(C(=O)CCCc3nn4cccc4c(=O)[nH]3)CC2)cnc1N [Compound C138, 6-Amino-1′-[4-(4-oxo-3,4-dihydro-pyrrolo[2,1-f][1,2,4]triazin-2-yl)-butyryl]-1′,2′,3′,4′,5′,6′-hexahydro-[3,4′]bipyridinyl-5-carbonitrile] | 5.2e-08 M | 2.2 nM | 2.6e-09 M | 3200 nM
Nc1ncc(C2CCN(C(=O)CCCc3nn4cccc4c(=O)[nH]3)CC2)cc1-c1ncccn1 [Compound C139, 2-[4-(6-Amino-5-pyrimidin-2-yl-3′,4′,5′,6′-tetrahydro-2′H-[3,4′]bipyridinyl-1′-yl)-4-oxo-butyl]-3H-pyrrolo[2,1-f][1,2,4]triazin-4-one] | 3.4e-09 M | 0.23 nM | 2.6e-10 M | 3200 nM
O=C(CCCc1nn2cccc2c(=O)[nH]1)N1CCC(c2nnc(-c3ccccc3)o2)CC1 [Compound C140, 2-{4-Oxo-4-[4-(5-phenyl-[1,3,4]oxadiazol-2-yl)-piperidin-1-yl]-butyl}-3H-pyrrolo[2,1-f][1,2,4]triazin-4-one] | 1e-07 M | 18 nM | 1e-08 M | 3600 nM
N#Cc1ccc(OC2CCN(C(=O)CCCc3nn4cccc4c(=O)[nH]3)CC2)cc1 [Compound C141, 4-{1-[4-(4-Oxo-3,4-dihydro-pyrrolo[2,1-f][1,2,4]triazin-2-yl)-butyryl]-piperidin-4-yloxy}-benzonitrile] | 6.8e-07 M | 100 nM | 6.5e-08 M | 2600 nM
O=C(c1ccc(F)cc1)C1CCN(C(=O)CCCc2nn3cccc3c(=O)[nH]2)CC1 [Compound C142, 2-{4-[4-(4-Fluoro-benzoyl)-piperidin-1-yl]-4-oxo-butyl}-3H-pyrrolo[2,1-f][1,2,4]triazin-4-one] | 2e-08 M | 14 nM | 1.4e-08 M | 7200 nM
COc1ccc(C(=O)C2CCN(C(=O)CCCc3nn4cccc4c(=O)[nH]3)CC2)cc1C [Compound C143, 2-{4-[4-(4-Methoxy-3-methyl-benzoyl)-piperidin-1-yl]-4-oxo-butyl}-3H-pyrrolo[2,1-f][1,2,4]triazin-4-one] | 1.7e-09 M | 0.19 nM | 1.6e-10 M | 4800 nM
CC(C)(O)c1ccc(C(=O)C2CCN(C(=O)CCCc3nn4cccc4c(=O)[nH]3)CC2)cc1 [Compound C144, 2-(4-{4-[4-(1-Hydroxy-1-methyl-ethyl)-benzoyl]-piperidin-1-yl}-4-oxo-butyl)-3H-pyrrolo[2,1-f][1,2,4]triazin-4-one] | 8.3e-08 M | 7.3 nM | 3.5e-09 M | 11000 nM
COc1ccc(C(=O)C2CCN(C(=O)CCCc3nn4c(C)ccc4c(=O)[nH]3)CC2)cc1F [Compound C147, 2-{4-[4-(3-Fluoro-4-methoxy-benzoyl)-piperidin-1-yl]-4-oxo-butyl}-7-methyl-3H-pyrrolo[2,1-f][1,2,4]triazin-4-one] | 8.1e-10 M | < 0.1 nM | < 1e-10 M | 370 nM
COc1ccc(C(=O)C2CCN(C(=O)CCCc3nn4c(C)ccc4c(=O)[nH]3)CC2)cn1 [Compound C148, 2-{4-[4-(6-Methoxy-pyridine-3-carbonyl)-piperidin-1-yl]-4-oxo-butyl}-7-methyl-3H-pyrrolo[2,1-f][1,2,4]triazin-4-one] | 1.4e-09 M | 0.28 nM | 1.9e-10 M | 770 nM
Cc1ccc2c(=O)[nH]c(CCCC(=O)N3CCC(c4cnc(N)c(C#N)c4)CC3)nn12 [Compound C149, 6-Amino-1′-[4-(7-methyl-4-oxo-3,4-dihydro-pyrrolo[2,1-f][1,2,4]triazin-2-yl)-butyryl]-1′,2′,3′,4′,5′,6′-hexahydro-[3,4′]bipyridinyl-5-carbonitrile] | 3.1e-09 M | 0.38 nM | 3.8e-10 M | 770 nM
Cc1ccc2c(=O)[nH]c(CCCC(=O)N3CCC(c4cnc(N)c(-c5ncccn5)c4)CC3)nn12 [Compound C150, 2-[4-(6-Amino-5-pyrimidin-2-yl-3′,4′,5′,6′-tetrahydro-2′H-[3,4′]bipyridinyl-1′-yl)-4-oxo-butyl]-7-methyl-3H-pyrrolo[2,1-f][1,2,4]triazin-4-one] | 1.1e-09 M | 0.23 nM | 2.8e-10 M | 1300 nM
Cc1ccc2c(=O)[nH]c(CCCC(=O)N3CCC(c4nnc(-c5ccccc5)o4)CC3)nn12 [Compound C151, 7-Methyl-2-{4-oxo-4-[4-(5-phenyl-[1,3,4]oxadiazol-2-yl)-piperidin-1-yl]-butyl}-3H-pyrrolo[2,1-f][1,2,4]triazin-4-one] | 1.9e-08 M | 1.4 nM | 9.3e-10 M | 210 nM
Cc1ccc2c(=O)[nH]c(CCCC(=O)N3CCC(C(=O)c4ccc(F)cc4)CC3)nn12 [Compound C153, 2-{4-[4-(4-Fluoro-benzoyl)-piperidin-1-yl]-4-oxo-butyl}-7-methyl-3H-pyrrolo[2,1-f][1,2,4]triazin-4-one] | 1.7e-09 M | 0.17 nM | 1.6e-10 M | 2000 nM
COc1ccc(C(=O)C2CCN(C(=O)CCCc3nn4c(C)ccc4c(=O)[nH]3)CC2)cc1C [Compound C154, 2-{4-[4-(4-Methoxy-3-methyl-benzoyl)-piperidin-1-yl]-4-oxo-butyl}-7-methyl-3H-pyrrolo[2,1-f][1,2,4]triazin-4-one] | 9.7e-10 M | 0.16 nM | 1.3e-10 M | 610 nM
